Paper PMC9203742 (Nature Communications, 2022)
Values joined by “and” are separate entries in the source; they are usually repeats but may differ in a detail not shown here. Identical values can stand only once.

Key:
[1] = system: mGlu1 construct not given; test: Fura-2 Ca2+ imaging in HEK293 cells, source data Suppl Fig1, left group (c0-c8); construct not given; type: cell-based, rat; settings: single-cell values, cells #15-#20; left group of third block
From the text: (§1) Supplement 41467_2022_30828_MOESM6_ESM.zip/Ojima et al_source data_Suppl Fig.xlsx, sheet "Suppl Fig1" | column: Glu; NiCl2; CuCl2; ZnCl2; CdCl2; Na2PdCl2; Pd(bpy)

[2] = biological target: T1, mGlu1 A59H/G266H mutant (Rattus norvegicus, UniProt P23385, A59H/G266H); test: Fura-2 Ca2+ imaging in HEK293 cells expressing mGlu1 A59H/G266H; type: cell-based; settings: single-cell values
T1 construct: expressed in transfected cells; host or cells: HEK293

[3] = biological target: T1, mGlu1 A59H/G266H mutant; test: as above; type: cell-based; settings: Fig.1e
[4] = system: HEK293 cells, vector control; test: Fura-2 Ca2+ imaging in HEK293 cells transfected with control vector (Vec); type: cell-based; settings: Fig.1e
From the text: Supplement 41467_2022_30828_MOESM6_ESM.zip/Ojima et al_source data_Main Figure.xlsx, sheet "Fig.1e" | column: Vec

[5] = biological target: T2, mGlu1 P57H/N264H mutant (Rattus norvegicus, UniProt P23385, N264H/P57H); test: Fura-2 Ca2+ imaging in HEK293 cells expressing mGlu1 P57H/N264H; type: cell-based
T2 construct: expressed in transfected cells; host or cells: HEK293

[6] = biological target: T3, mGlu1 P58H/N264H mutant (Rattus norvegicus, UniProt P23385, N264H/P58H); test: Fura-2 Ca2+ imaging in HEK293 cells expressing mGlu1 P58H/N264H; type: cell-based
T3 construct: expressed in transfected cells; host or cells: HEK293

[7] = biological target: T4, mGlu1 K61H/N264H mutant (Rattus norvegicus, UniProt P23385, K61H/N264H); test: Fura-2 Ca2+ imaging in HEK293 cells expressing mGlu1 K61H/N264H; type: cell-based
T4 construct: expressed in transfected cells; host or cells: HEK293

[8] = biological target: T5, mGlu1 A59H/A265H mutant (Rattus norvegicus, UniProt P23385, A265H/A59H); test: Fura-2 Ca2+ imaging in HEK293 cells expressing mGlu1 A59H/A265H; type: cell-based; settings: single-cell values
T5 construct: expressed in transfected cells; host or cells: HEK293

[9] = system: mGlu1 construct not given; test: Fura-2 Ca2+ imaging in HEK293 cells, source data Suppl Fig1, right group (c18-c26); construct not given; type: cell-based, rat; settings: single-cell values, cells #15-#20; right group of third block
From the text: as §1

[10] = system: HEK293 cells, vector control; test: Fura-2 Ca2+ imaging in HEK293 cells transfected with control vector (Vec); type: cell-based; settings: single-cell values #1-#20
[11] = biological target: T6, mGlu1 A59H/N264H mutant (Rattus norvegicus, UniProt P23385, A59H/N264H); test: Fura-2 Ca2+ imaging in HEK293 cells expressing mGlu1 A59H/N264H; type: cell-based
T6 construct: expressed in transfected cells; host or cells: HEK293

[12] = biological target: T7, mGlu1 E60H/N264H mutant (Rattus norvegicus, UniProt P23385, E60H/N264H); test: Fura-2 Ca2+ imaging in HEK293 cells expressing mGlu1 E60H/N264H; type: cell-based
T7 construct: expressed in transfected cells; host or cells: HEK293

[13] = system: mGlu1 construct not given; test: Fura-2 Ca2+ imaging in HEK293 cells, source data Suppl Fig1, middle group (c9-c17); construct not given; type: cell-based, rat; settings: single-cell values, cells #15-#20; middle group of third block
From the text: as §1

[14] = biological target: T5, mGlu1 A59H/A265H mutant; test: Fura-2 Ca2+ imaging in HEK293 cells expressing mGlu1 A59H/A265H; type: cell-based; settings: Fig.1e
[15] = biological target: T8, WT mGlu1 (Rattus norvegicus, UniProt P23385); type: cell-based
T8 construct: expressed in transfected cells; host or cells: HEK293

[16] = system: MLIs infected with AAV-hSyn-mGlu1^WT; test: sAP-mediated currents (firing rate) of MLIs infected with AAV-hSyn-mGlu1^WT; type: cell-based, mouse; settings: AAV-hSyn-mGlu1WT;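 further: 10 µM Pd complex applied to the bath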
Description: (§2) To monitor the excitability of MLIs, sAP-mediated current responses were extracellulary recorded by a loose cell-attached voltage-clamp at a holding potential of 0 mV. Glass electrodes used for cell-attached recordings had resistances of 3–5 MΩ when filled with ACSF. The current recordings from AAV-infected cells were performed 1−2 weeks after infection. The EPSCs and sAP-mediated currents were recorded using an Axopatch 200B amplifier (Molecular Devices), and the pClamp system (version 9.2; Molecular Devices) was used for data acquisition and analysis. The signals were filtered at 1 kHz and digitized at 4 kHz for the evoked EPSCs and 10 kHz for the sAP-mediated currents.
(§3) Injection of viral solutions was performed as described previously with slight modifications. Briefly, under deep anesthesia, with an intraperitoneal injection of medetomidine (0.3 mg/kg), midazolam (4.0 mg/kg), and butorphanol (5.0 mg/kg), 4 µL of the solutions containing AAV mixture were directly injected into the vermis of cerebellar lobules V-VIII (200-300 µm in depth, 12 µL/h in rate) of WT mice (C57BL/6J, P20-P30) using glass pipette (30–40 µm in diameter) and microinjector (Nanoliter; World Precision Instruments). In all, 1−2 week after injection, the mice were used for each experiment.

[17] = system: MLIs infected with AAV-hSyn-mGlu1^CBC; test: sAP-mediated currents (firing rate) of MLIs infected with AAV-hSyn-mGlu1^CBC; type: cell-based, mouse; settings: AAV-hSyn-mGlu1CBC;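 further: 10 µM Pd complex applied to the bath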
Description: as §2, §3

[18] = system: MLIs surrounded by mGlu1(N264H)-expressing Purkinje cells (AAV-L7-mGlu1^CBC); test: sAP-mediated currents (firing rate) of MLIs in slices infected with AAV-L7-mGlu1^CBC; type: cell-based, mouse; settings: AAV-L7-mGlu1CBC;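 further: 10 µM Pd complex applied to the bath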
Description: as §2, §3

[19] = ratio of sAP-mediated currents Pd vs CTL
[20] = 10 μM metal ion or metal complex

T6 sequence (P23385 19-1199 A59H/N264H): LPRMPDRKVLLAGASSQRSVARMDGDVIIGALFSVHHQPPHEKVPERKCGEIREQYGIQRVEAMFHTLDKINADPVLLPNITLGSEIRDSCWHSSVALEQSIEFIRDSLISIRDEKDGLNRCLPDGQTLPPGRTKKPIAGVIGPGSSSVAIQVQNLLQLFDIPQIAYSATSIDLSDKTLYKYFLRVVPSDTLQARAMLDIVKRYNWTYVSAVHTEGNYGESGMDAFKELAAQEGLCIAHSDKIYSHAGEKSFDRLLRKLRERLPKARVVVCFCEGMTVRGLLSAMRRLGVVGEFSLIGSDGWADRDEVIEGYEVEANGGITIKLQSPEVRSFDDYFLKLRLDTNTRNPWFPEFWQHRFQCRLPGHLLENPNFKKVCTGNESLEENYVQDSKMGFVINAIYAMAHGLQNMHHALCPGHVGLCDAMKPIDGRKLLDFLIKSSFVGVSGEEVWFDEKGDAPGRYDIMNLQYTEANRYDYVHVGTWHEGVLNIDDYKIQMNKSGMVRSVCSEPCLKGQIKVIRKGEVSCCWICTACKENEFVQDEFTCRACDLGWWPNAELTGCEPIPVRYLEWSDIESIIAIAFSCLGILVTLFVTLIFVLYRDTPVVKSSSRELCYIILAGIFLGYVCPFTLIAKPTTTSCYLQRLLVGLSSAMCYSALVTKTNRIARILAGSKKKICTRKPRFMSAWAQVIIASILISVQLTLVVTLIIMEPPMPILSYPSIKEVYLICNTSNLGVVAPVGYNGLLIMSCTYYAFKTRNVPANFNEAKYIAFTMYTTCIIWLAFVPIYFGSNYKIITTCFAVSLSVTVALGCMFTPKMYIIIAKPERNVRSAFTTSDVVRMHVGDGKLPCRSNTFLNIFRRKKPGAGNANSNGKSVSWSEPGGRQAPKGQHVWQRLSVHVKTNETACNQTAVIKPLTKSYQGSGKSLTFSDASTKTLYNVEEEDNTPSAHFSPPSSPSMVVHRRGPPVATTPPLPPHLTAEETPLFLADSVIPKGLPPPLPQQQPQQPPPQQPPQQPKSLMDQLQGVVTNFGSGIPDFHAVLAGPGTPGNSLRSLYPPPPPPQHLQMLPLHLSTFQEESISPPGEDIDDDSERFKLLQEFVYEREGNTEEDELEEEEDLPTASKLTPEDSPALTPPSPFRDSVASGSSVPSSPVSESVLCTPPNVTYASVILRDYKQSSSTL
T4 sequence (P23385 19-1199 K61H/N264H): as the sequence (P23385 19-1199 A59H/N264H) above, with H41A, K43H counted along it
T8 sequence (P23385 19-1199): as the sequence (P23385 19-1199 A59H/N264H) above, with H41A, H246N counted along it
T1 sequence (P23385 19-1199 A59H/G266H): as the sequence (P23385 19-1199 A59H/N264H) above, with H246N, G248H counted along it
T3 sequence (P23385 19-1199 P58H/N264H): as the sequence (P23385 19-1199 A59H/N264H) above, with P40H, H41A counted along it
T2 sequence (P23385 19-1199 P57H/N264H): as the sequence (P23385 19-1199 A59H/N264H) above, with P39H, H41A counted along it
T7 sequence (P23385 19-1199 E60H/N264H): as the sequence (P23385 19-1199 A59H/N264H) above, with H41A, E42H counted along it
T5 sequence (P23385 19-1199 A59H/A265H): as the sequence (P23385 19-1199 A59H/N264H) above, with H246N, A247H counted along it

[Cl][Cd][Cl] [CdCl2]
Ca2+ response of individual cells (source data, sheet Suppl Fig1) [1]: -0.005954 and 0.01795 and 0.005315 and -0.02397 and -0.001754 and -0.003654 | Ca2+ response of individual cells (source data Suppl Fig1), A59H/G266H [2]: -0.01723 and 0.01558 and 0.01066 and 0.005608 and 0.01182 and 0.0279 and -0.1123 and -0.0058 and -0.01721 and 0.02262 and 0.01814 and -0.006169 and -0.01936 and 0.04175 | Ca2+ response (delta ratio), A59H/G266H [3]: 0.001928 | Ca2+ response (delta ratio), Vec [4]: -0.03216 | Ca2+ response (delta ratio), P57H/N264H ([5]; Fig.1e): 0.03091 | Ca2+ response of individual cells (source data Suppl Fig1), P57H/N264H ([5]; single-cell values #1-#20, P57H/N264H): -0.01735 and -0.005323 and -0.01104 and -0.01126 and -0.0097 and -0.003008 and -0.01663 and -0.0067 and -0.01865 and 0.6823 and 0.01155 and -0.0096 and 0.03494 and -0.09688 and -0.01634 and 0.024 and 0.009592 and -0.004469 and 0.09844 and -0.01566 | Ca2+ response (delta ratio), P58H/N264H ([6]; Fig.1e): -0.005715 | Ca2+ response of individual cells (source data Suppl Fig1), P58H/N264H ([6]; single-cell values #1-#20, P58H/N264H): 0.0003 and -0.006238 and 0.002354 and -0.001808 and -0.01828 and -0.02019 and -0.005077 and -0.009385 and -0.005592 and -0.02068 and -0.009223 and 0.09017 and -0.003262 and -0.06371 and -0.003885 and -0.002246 and -0.002192 and 0.0005231 and -0.03079 | Ca2+ response (delta ratio), K61H/N264H ([7]; Fig.1e): 0.01695 | Ca2+ response of individual cells (source data Suppl Fig1), K61H/N264H ([7]; single-cell values, K61H/N264H): 0.003946 and -0.03622 and -0.01614 and -0.01244 and -0.01964 and -0.05083 and -0.008715 and -0.008331 and -0.02813 and 0.002531 and -0.03307 and -0.01172 and 0.5817 and -0.01188 | Ca2+ response of individual cells (source data Suppl Fig1), A59H/A265H [8]: 0.002869 and 0.004277 and -0.0003846 and 0.01228 and 0.01648 and -0.01175 and -0.03786 and 0.01586 and 0.002777 and 0.3308 and 0.2114 and -0.005654 and -0.02447 and 0.0205 | Ca2+ response of individual cells (source data, sheet Suppl Fig1) [9]: 0.03353 and 0.009331 and 0.006908 and 0.01689 and -0.009408 and 0.005315 | Ca2+ response of individual cells (source data Suppl Fig1), Vec [10]: -0.01042 and -0.01834 and -0.01502 and -0.05052 and -0.04072 and -0.03065 and -0.02875 and -0.03001 and -0.006638 and -0.04038 and -0.04515 and -0.04559 and -0.05998 and -0.01618 and -0.0239 and -0.03979 and -0.02847 and -0.03687 and -0.04005 and -0.03582 | Ca2+ response (delta ratio), A59H/N264H ([11]; Fig.1e): 0.02484 | Ca2+ response of individual cells (source data Suppl Fig1), A59H/N264H ([11]; single-cell values #1-#20, A59H/N264H): 0.2588 and -0.01875 and -0.0009538 and 0.004669 and -0.003354 and -0.0081 and -0.03695 and -0.009438 and -0.004808 and -0.01072 and -0.01152 and -0.03409 and 0.4867 and -0.01683 and -0.02968 and -0.006508 and -0.0288 and -0.01271 and -0.01325 and -0.006908 | Ca2+ response (delta ratio), E60H/N264H ([12]; Fig.1e): -0.01186 | Ca2+ response of individual cells (source data Suppl Fig1), E60H/N264H ([12]; single-cell values #1-#20, E60H/N264H): -0.009869 and -0.0139 and -0.008638 and -0.01472 and -0.009062 and -0.006669 and -0.004677 and -0.01493 and -0.004954 and 0.001138 and -0.005708 and -0.002215 and 0.01407 and 0.02235 and -0.01174 and -0.009823 and -0.008654 and -0.007631 and -0.02142 and -0.1201 | Ca2+ response of individual cells (source data, sheet Suppl Fig1) [13]: 0.01055 and 0.01355 and -0.009131 and -0.01706 and 0.009777 and -0.01645 | Ca2+ response (delta ratio), A59H/A265H [14]: 0.02642 | Ca2+ response (delta ratio), WT ([15]; Fig.1e): 0.005362 | Ca2+ response of individual cells (source data Suppl Fig1), WT ([15]; single-cell values #1-#20, WT): 0.0129 and 0.04075 and 0.009069 and 0.006385 and -0.009131 and -0.006215 and 0.2594 and 0.005608 and -0.007808 and -0.007346 and 0.0007769 and -0.1317 and -0.001 and -0.06408 and -0.004269 and 0.01558 and -0.01997 and 0.01184 and 0.001662 and -0.005277

[Pd+2] [Pd^2+]
firing rate with Pd, AVE(Hz) ([16]; Pd): 8.021 Hz | number of sAP-mediated currents with Pd, individual MLIs ([16]; Pd): 195 and 227 and 165 and 235 and 230 and 276 and 213 and 238 and 272 and 431 and 142 and 211 and 228 and 253 and 240 and 294 | number of sAP-mediated currents with Pd, AVE ([16]; Pd, average of 16 MLIs): 240.625 | Pd/CTL, AVE ([16]; average of 16 MLIs): 1.02 | Pd/CTL, individual MLIs [16, 19]: 0.9466 and 0.8833 and 1.065 and 1.119 and 1.05 and 1.091 and 1.081 and 0.9958 and 0.8947 and 1.005 and 0.9161 and 0.8474 and 1.013 and 1.182 and 1.106 and 1.126 | firing rate with Pd, AVE(Hz) ([17]; Pd): 9.847 Hz | number of sAP-mediated currents with Pd, AVE ([17]; Pd, average of 22 MLIs): 295.409 | Pd/CTL, AVE ([17]; average of 22 MLIs): 1.392 | Pd/CTL, individual MLIs [17, 19]: 1.204 and 2.167 and 1.052 and 0.9801 and 1.6822 and 1.455 and 1.074 and 1.288 and 1.082 and 1.081 and 1.083 and 2.412 and 1.119 and 3.478 and 1.177 and 1.12 and 1.045 and 1.16 and 1.215 and 1.142 and 1.333 and 1.265 | Receptor activation ([Ca2+]i change, Δratio) [6, 20]: also activated | Receptor activation ([Ca2+]i change, Δratio) [7, 20]: also activated | firing rate with Pd, AVE(Hz) ([18]; Pd): 8.376 Hz | number of sAP-mediated currents with Pd, individual MLIs ([18]; Pd): 269 and 246 and 275 and 319 and 316 and 259 and 286 and 137 and 343 and 147 and 282 and 292 and 186 | number of sAP-mediated currents with Pd, AVE ([18]; Pd, average of 15 MLIs): 251.267 | Pd/CTL, AVE ([18]; average of 15 MLIs): 1.024 | Pd/CTL, individual MLIs [18, 19]: 0.9181 and 1.134 and 0.9516 and 1.085 and 1.01 and 1.008 and 1.018 and 1.161 and 1.003 and 1.105 and 0.9786 and 0.9216 and 1.028 and 0.9928 and 1.051 | Receptor activation ([Ca2+]i change, Δratio) [12, 20]: also activated
